Like-named read-outs stand apart in the source and are kept apart here.
Tests used:
[1] = Microsomal activation of prodrug, rat liver microsomes; format: in vitro ADME; settings: 1 μM in rat liver microsomes, room temperature, assayed for active drug by LC/MS/MS
Description: (§1) Serum activation: Compounds 1, 2, or II were solubilized in water and added to rat, dog, monkey, and human serum at a concentration of 50 μg/mL. The samples were incubated at room temperature for 1 hour then assayed for “active” drug content using an LC/MS/MS assay. Microsomal activation: Compounds 1, 2, or II were solubilized in water and added to rat, dog, monkey, and human liver microsomes at a concentration of 1 μM. The samples were incubated at room temperature for 1 hour then assayed for “active” drug content using an LC/MS/MS assay.

[2] = Microsomal activation of prodrug, dog liver microsomes; format: in vitro ADME; settings: 1 μM in dog liver microsomes, room temperature, assayed for active drug by LC/MS/MS
Description: as §1

[3] = Microsomal activation of prodrug, monkey liver microsomes; format: in vitro ADME; settings: 1 μM in monkey liver microsomes, room temperature, assayed for active drug by LC/MS/MS; read-out: Half-life monkey micorsomes
Description: as §1

[4] = Crystallinity; format: physicochemical
[5] = Serum activation of prodrug, human serum; format: in vitro ADME; settings: 50 μg/mL in human serum, room temperature, 1 hour, assayed for active drug by LC/MS/MS
Description: as §1

[6] = Microsomal activation of prodrug, human liver microsomes; format: in vitro ADME; settings: for half-life at 1 μM: 1 μM in human liver microsomes, room temperature, assayed for active drug by LC/MS/MS
Description: as §1

[7] = Serum activation of prodrug, dog serum; format: in vitro ADME; settings: 50 μg/mL in dog serum, room temperature, 1 hour, assayed for active drug by LC/MS/MS
Description: as §1

[8] = Serum activation of prodrug, rat serum; format: in vitro ADME; settings: 50 μg/mL in rat serum, room temperature, 1 hour, assayed for active drug by LC/MS/MS
Description: as §1

[9] = Serum activation of prodrug, monkey serum; format: in vitro ADME; settings: 50 μg/mL in monkey serum, room temperature, 1 hour, assayed for active drug by LC/MS/MS
Description: as §1

[10] = Permeability/transport; format: in vitro ADME
[11] = Dynamic vapor sorption (DVS), hygroscopicity; format: physicochemical; settings: 25° C., 5 to 95% RH
Description: DVS analysis was carried out using a TA Instruments Q5000 Dynamic Vapor Sorption analyzer. The instrument was calibrated with standard weights and a sodium bromide standard for humidity. Approximately 20 mg of sample was loaded into a metal-coated quartz pan for analysis. The sample was analyzed at 25° C. with a maximum equilibration time of one hour in 10% relative humidity (RH) steps from 5 to 95% RH (adsorption cycle) and from 95 to 5% RH (desorption cycle). The movement from one step to the next occurred either after satisfying the equilibrium criterion of 0.01% weight change or, if the equilibrium criterion was not met, after one hour. The percent weight change values were calculated using Microsoft Excel®. The temperature for the DVS analysis can impact the outcome of the results.

| Structure (SMILES) | half-life at 1 μM [1] | half-life at 1 μM [2] | half-life at 1 μM [3] | Crystallinity [4] | half-life at 50 μg/mL [5] | half-life at 1 μM [6] | human microsomal activation, compared in words ([6]; compared with Compound 2 or Compound II) | half-life at 50 μg/mL [7] | half-life at 50 μg/mL [8] | half-life at 50 μg/mL [9] | Permeability/transport [10] | Crystallinity ([4]; listed as drawing 11) | Human microsome activation t1/2 ([6]; human liver microsomes, as repeated in Table 2) | Hygroscopicity by dynamic vapor sorption (DVS) [11] |
| --- | --- | --- | --- | --- | --- | --- | --- | --- | --- | --- | --- | --- | --- | --- |
| CCCC(=O)OCOC(=O)c1c(F)ccc2c1OB(O)[C@@H]1C[C@H]21 [Compound 1] | 3 ± 1 min | 11 ± 1 min | 2 ± 1 min | Yes | > 60 min | 28 ± 2 min | significantly slower | > 60 min | > 60 min | > 60 min | High | – | – | – |
| CC(=O)OCOC(=O)c1c(F)ccc2c1OB(O)[C@@H]1C[C@H]21 [Compound 2] | 3 ± 2 min | – | 3 ± 2 min | not crystalline | > 60 min | 8 ± 1 min | – | > 60 min | > 60 min | > 60 min | High | No | – | – |
| CC(C)C(=O)OCOC(=O)c1c(F)ccc2c1OB(O)[C@@H]1C[C@H]21 [Compound II, (isobutyryloxy)methyl (1aR,7bS)-5-fluoro-2-hydroxy-1,1a,2,7b-tetrahydrobenzo[e]cyclopropa[c][1,2]oxaborinine-4-carboxylate] | 5 ± 3 min | 23 ± 2 min | 2 ± 1 min | Yes | > 60 min | 9 ± 5 min | – | > 60 min | > 60 min | > 60 min | High | – | 9 + 5 min | – |
| CC(C)C(=O)OCOC(=O)c1c(F)ccc2c1O[B-](O)(O)[C@@H]1C[C@H]21.[Na+] [crystalline Form A of Compound II′] | – | – | – | – | – | – | – | – | – | – | – | – | – | slightly hygroscopic |
| CC(C)C(=O)OCOC(=O)c1c(F)ccc2c1O[B-](O)(O)[C@@H]1C[C@H]21.[Na+] [crystalline Form B of Compound II′] | – | – | – | – | – | – | – | – | – | – | – | – | – | moderately hygroscopic |
